Experiment: wn = mass fraction of the nth substance listed
Settings: Liquid; for mass density: Other PVT measurement; for viscosity: 17000 kPa, high pressure falling cylinger viscometer

CC(=O)OC[C@H]1O[C@@H](OC(C)=O)[C@H](OC(C)=O)[C@@H](OC(C)=O)[C@H]1OC(C)=O [β-D-galactose pentaacetate] + O=C=O
mass density [kg/m3]
Settings | w1 = 0.206 | w1 = 0.259
308 K, 10600 kPa | 930 | 990
308 K, 11000 kPa | – | 1000
308 K, 11400 kPa | 940 | –
308 K, 11700 kPa | – | 1010
308 K, 12300 kPa | 950 | –
308 K, 12400 kPa | – | 1020
308 K, 13300 kPa | – | 1030
308 K, 13700 kPa | 960 | –
308 K, 14900 kPa | – | 1040
308 K, 15000 kPa | 970 | –
308 K, 15500 kPa | 970 | –
308 K, 17100 kPa | – | 1060
313 K, 11900 kPa | – | 970
313 K, 12100 kPa | 940 | –
313 K, 12600 kPa | – | 980
313 K, 12700 kPa | 940 | –
313 K, 13300 kPa | – | 980
313 K, 13600 kPa | 950 | –
313 K, 14200 kPa | – | 990
313 K, 15100 kPa | 960 | 1000
313 K, 15800 kPa | – | 1010
313 K, 16200 kPa | 970 | –
313 K, 17300 kPa | – | 1020
313 K, 17500 kPa | 980 | –
313 K, 18500 kPa | 980 | –
313 K, 19400 kPa | 980 | –
313 K, 19800 kPa | – | 1040
318 K, 14400 kPa | 930 | –
318 K, 15100 kPa | 940 | –
318 K, 15900 kPa | 940 | –
318 K, 16700 kPa | 950 | –
318 K, 17900 kPa | 960 | –
318 K, 20300 kPa | 970 | –
323 K, 15500 kPa | 930 | –
323 K, 16000 kPa | 940 | –
323 K, 16600 kPa | 940 | –
323 K, 17700 kPa | 950 | –
323 K, 18900 kPa | 960 | –

318 K
Settings | viscosity [mPa·s]
w1 = 0.18 | 0.095
w1 = 0.25 | 0.103
